Data reported in patent US20240051935A1, “SUBSTITUTED PYRAZOLO PIPERIDINE CARBOXYLIC ACIDS” (BAYER AKTIENGESELLSCHAFT, priority 2020, published 2024).
Counter-ions that a name gives are not always drawn. Like-named read-outs stand apart in the source and are kept apart here.

Key:
[1] = molecular target: T1, recombinant guanylate cyclase reporter cell line (Rattus norvegicus, UniProt P19686+P20595); assay: Effect on a recombinant guanylate cyclase reporter cell line; format: cell-based
T1 construct: expressed in transfected cells; host or cells: recombinant reporter cell line
T1 sequence (P20595 1-619): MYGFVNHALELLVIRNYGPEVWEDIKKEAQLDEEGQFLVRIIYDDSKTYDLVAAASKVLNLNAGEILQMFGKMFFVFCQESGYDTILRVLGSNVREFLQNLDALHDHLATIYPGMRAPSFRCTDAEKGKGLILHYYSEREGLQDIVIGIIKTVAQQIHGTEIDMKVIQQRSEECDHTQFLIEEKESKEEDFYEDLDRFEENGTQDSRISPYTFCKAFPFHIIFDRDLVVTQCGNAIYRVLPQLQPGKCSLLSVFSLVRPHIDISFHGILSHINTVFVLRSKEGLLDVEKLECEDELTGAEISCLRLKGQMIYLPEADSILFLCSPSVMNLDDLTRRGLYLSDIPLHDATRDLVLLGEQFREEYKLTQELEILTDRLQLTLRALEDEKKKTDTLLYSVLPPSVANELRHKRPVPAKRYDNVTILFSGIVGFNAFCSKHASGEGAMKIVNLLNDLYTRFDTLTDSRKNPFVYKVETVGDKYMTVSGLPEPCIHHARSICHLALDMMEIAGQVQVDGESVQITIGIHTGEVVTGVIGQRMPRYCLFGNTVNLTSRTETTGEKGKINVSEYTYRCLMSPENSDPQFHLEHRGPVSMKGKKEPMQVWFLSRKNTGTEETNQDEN
T1 sequence (P19686 1-690): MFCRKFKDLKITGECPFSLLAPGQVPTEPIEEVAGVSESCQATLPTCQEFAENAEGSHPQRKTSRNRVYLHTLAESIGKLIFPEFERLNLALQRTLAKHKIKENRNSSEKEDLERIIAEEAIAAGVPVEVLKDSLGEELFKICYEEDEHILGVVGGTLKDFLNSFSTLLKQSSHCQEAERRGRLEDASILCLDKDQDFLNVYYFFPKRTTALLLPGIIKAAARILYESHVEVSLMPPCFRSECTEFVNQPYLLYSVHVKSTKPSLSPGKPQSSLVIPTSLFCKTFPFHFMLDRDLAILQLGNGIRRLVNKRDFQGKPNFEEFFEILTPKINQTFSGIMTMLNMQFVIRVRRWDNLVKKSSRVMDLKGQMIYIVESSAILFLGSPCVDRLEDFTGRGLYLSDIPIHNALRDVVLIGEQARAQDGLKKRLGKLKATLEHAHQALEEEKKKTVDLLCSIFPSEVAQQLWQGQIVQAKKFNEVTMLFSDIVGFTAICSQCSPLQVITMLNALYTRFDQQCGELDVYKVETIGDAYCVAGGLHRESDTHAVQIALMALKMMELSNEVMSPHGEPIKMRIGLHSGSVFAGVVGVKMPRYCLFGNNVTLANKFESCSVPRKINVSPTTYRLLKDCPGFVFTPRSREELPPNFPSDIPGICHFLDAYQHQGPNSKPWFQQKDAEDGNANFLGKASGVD
Experimental: The cellular activity of the compounds according to the invention was determined using a recombinant guanylate cyclase reporter cell line, as described in F. Wunder et al., Anal. Biochem. 339, 104-112 (2005).

[2] = Pharmacokinetic parameters following intravenous and oral administration in rats; format: in vivo, male Wistar rats; settings: in rats as well as in dogs
Experimental: The pharmacokinetic parameters of the compounds according to the invention were determined in male Wistar rats and/or in female beagles and/or in cynomolgus monkeys and/or in male CD-1 mice. Intravenous administration in the case of mice and rats was carried out by means of a species-specific plasma/DMSO formulation, and in the case of dogs and monkeys by means of a water/PEG400/ethanol formulation. In all species, oral administration of the dissolved substance was performed via gavage, based on a water/PEG400/ethanol formulation.
An internal standard (which may also be a chemically unrelated substance) was added to the samples of the compounds of the invention, calibration samples and qualifiers, and there follows protein precipitation by means of acetonitrile in excess. […] The supernatant was analysed by LC-MS/MS using C18 reversed-phase columns and variable mobile phase mixtures. The substances were quantified via the peak heights or areas from extracted ion chromatograms of specific selected ion monitoring experiments.
The plasma concentration/time plots determined were used to calculate the pharmacokinetic parameters such as AUC,Cmax,t½ (terminal half-life), F (bioavailability), MRT (mean residence time) and CL (clearance), by means of a validated pharmacokinetic calculation program. […]

Row | SMILES | EC50 [1] | MEC (minimum effective concentration) [1] | MEC (minimum effective concentration) ([1]; hydrochloride) | lower plasma clearance (CLplasma) in comparison to example 174 in WO 2012/058132 [2]
1 | CC(C)CN1CCN(c2ccc(-c3ccc(Cl)cc3N3CCCC(n4ncc(C(=O)O)c4C(F)(F)F)C3)cc2)CC1 (single isomer, unassigned) [Example 1, 1-[1-{4-Chloro-4′-[4-(2-methylpropyl)piperazin-1-yl][1,1′-biphenyl]-2-yl}piperidin-3-yl]-5-(trifluoromethyl)-1H-pyrazole-4-carboxylic acid] | 40 nM | 6.5 nM |  | 
2 | CC(C)CN1CCN(c2ccc(-c3ccc(Cl)cc3N3CCCC(n4ncc(C(=O)O)c4C(F)(F)F)C3)cc2)CC1 (single isomer, unassigned) [Example 2, 1-[1-{4-chloro-4′-[4-(2-methylpropyl)piperazin-1-yl][1,1′-biphenyl]-2-yl}piperidin-3-yl]-5-(trifluoromethyl)-1H-pyrazole-4-carboxylic acid hydrochloride] | 11 nM |  | 2.2 nM | up to 10 times
